Converted amounts (≈) assume the structure as drawn.
Assays:
[1] = test system: Staphylococcus aureus; test: Antibacterial activity against constitutive macrolide-lincosamide-streptogramin B-resistant Staphylococcus aureus B0330 by agar microdilution method; assay type: functional
[2] = test system: Streptococcus pyogenes; test: Antibacterial activity against efflux-resistant Streptococcus pyogenes B0545 by agar microdilution method; assay type: functional
[3] = test system: Streptococcus pneumoniae; test: Antibacterial activity against erythromycin-susceptible Streptococcus pneumoniae B0541 by agar microdilution method
[4] = test system: Moraxella catarrhalis; test: Antibacterial activity against Moraxella catarrhalis B0324 by agar microdilution method; assay type: functional
[5] = test system: Streptococcus pyogenes; test: Antibacterial activity against erythromycin A-susceptible Streptococcus pyogenes B0542 by agar microdilution method
[6] = test system: Streptococcus pyogenes; test: Antibacterial activity against constitutive macrolide-lincosamide-streptogramin B-resistant Streptococcus pyogenes B0544 by agar microdilution method; assay type: functional
[7] = test system: Streptococcus pyogenes; test: Antibacterial activity against inducible macrolide-lincosamide-streptogramin B-resistant Streptococcus pyogenes B0543 by agar microdilution method; assay type: functional
[8] = test system: Streptococcus pneumoniae; test: Antibacterial activity against efflux-resistant Streptococcus pneumoniae B0326 by agar microdilution method; assay type: functional
[9] = test system: Streptococcus pneumoniae; test: Antibacterial activity against constitutive macrolide-lincosamide-streptogramin B-resistant Streptococcus pneumoniae B0627 by agar microdilution method; assay type: functional
[10] = test system: Haemophilus influenzae; test: Antibacterial activity against Haemophilus influenzae B0529 by agar microdilution method; assay type: functional
[11] = test system: Staphylococcus aureus; test: Antibacterial activity against efflux-resistant Staphylococcus aureus B0331 by agar microdilution method; assay type: functional
[12] = test system: Staphylococcus aureus; test: Antibacterial activity against inducible macrolide-lincosamide-streptogramin B-resistant Staphylococcus aureus B0538 by agar microdilution method; assay type: functional
[13] = test system: Staphylococcus aureus; test: Antibacterial activity against erythromycin A-susceptible Staphylococcus aureus B0329 by agar microdilution method

Row | SMILES | MIC [1] [µg/mL] | MIC [2] [µg/mL] | MIC [3] [µg/mL] | MIC [4] [µg/mL] | MIC [5] [µg/mL] | MIC [6] [µg/mL] | MIC [7] [µg/mL] | MIC [8] [µg/mL] | MIC [9] [µg/mL] | MIC [10] [µg/mL] | MIC [11] [µg/mL] | MIC [12] [µg/mL] | MIC [13] [µg/mL]
1 | CC[C@H]1OC(=O)[C@H](C)C(=O)[C@H](C)[C@@H](O[C@@H]2O[C@H](C)C[C@H](N(C)C)[C@H]2O)[C@](C)(OCC=Cc2cnc3ccccc3c2)C[C@@H](C)C(=O)[C@H](C)[C@H]2NC(=O)O[C@@]21C [CETHROMYCIN] | > 64 | ≤ 0.125 | ≤ 0.06 | ≤ 0.125 | ≤ 0.06 | 1 (≈ 1.31 µM) | ≤ 0.06 | ≤ 0.06 | ≤ 0.125 | 1 (≈ 1.31 µM) | 0.25 (≈ 0.326 µM) | 0.25 (≈ 0.326 µM) | ≤ 0.06
2 | CC[C@H]1OC(=O)[C@H](C)C(=O)[C@H](C)[C@@H](O[C@@H]2O[C@H](C)C[C@H](N(C)C)[C@H]2O)[C@](C)(OC)C[C@@H](C)C(=O)[C@H](C)[C@H]2N(CCCCn3cnc(-c4cccnc4)c3)C(=O)O[C@]12C [TELITHROMYCIN] | > 64 | 0.25 (≈ 0.308 µM) | ≤ 0.06 | ≤ 0.125 | ≤ 0.06 | 4 (≈ 4.93 µM) | ≤ 0.06 | 0.5 (≈ 0.616 µM) | ≤ 0.125 | 1 (≈ 1.23 µM) | 0.25 (≈ 0.308 µM) | 0.5 (≈ 0.616 µM) | ≤ 0.125

Reference: ChEMBL document CHEMBL1212927, “Synthesis and structure-activity relationships of novel 8a-aza-8a-homoerythromycin A ketolides” (2010)
